From patent publication US10822325B2, “Human GLUT5 specific inhibitors and methods of treatment” (UNM RAINFOREST INNOVATIONS, priority 2015, dated 2020) come the findings set out here.

“Also recorded” adds a separate entry of the source.

The target in the assay is T1, GlcPSe (Staphylococcus epidermidis, UniProt A0A0H2VG78).
T1 construct: made in house; host or cells: Escherichia coli JM1100 (pBAD); right-side-out membrane vesicles
T1 sequence (A0A0H2VG78 1-446): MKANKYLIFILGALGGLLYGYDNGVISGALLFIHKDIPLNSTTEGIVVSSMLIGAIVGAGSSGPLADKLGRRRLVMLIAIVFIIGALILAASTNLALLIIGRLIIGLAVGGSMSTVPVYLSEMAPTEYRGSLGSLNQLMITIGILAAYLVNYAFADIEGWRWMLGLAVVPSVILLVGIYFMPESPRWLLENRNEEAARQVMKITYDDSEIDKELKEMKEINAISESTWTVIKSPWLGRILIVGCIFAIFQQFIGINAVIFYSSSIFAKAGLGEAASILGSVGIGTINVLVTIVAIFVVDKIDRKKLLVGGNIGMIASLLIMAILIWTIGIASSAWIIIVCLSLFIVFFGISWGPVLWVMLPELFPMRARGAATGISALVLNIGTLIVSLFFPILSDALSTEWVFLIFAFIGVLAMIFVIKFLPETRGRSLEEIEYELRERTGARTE
As to the kind of experiment: Glucose uptake by GlcPSe in right-side-out vesicles of JM1100 E. coli cells. It is filed as biochemical. Particulars: 2 mM compound, RSO vesicles, 30 μM C14-glucose, one minute. The method, then: Glucose transport assay for GlcPSe, wild-type and F348H mutant, was performed as described previouslyl^16. GlcPSe was cloned into the pBAD vector (Invitrogen) with C-terminal 6×His tag. F348H mutation was done with the site-directed mutagenesis method^37. GlcPSe proteins were expressed in the glucose transporter deficient Escherichia coli strain JM1100. Cells were grown at 37° C., in Luria Broth medium, with 100 μg/mL ampicillin. Protein expression was induced with 0.3 mM L-arabinose at O.D.600 nm 0.6. After 3 hours, cells were harvested by centrifugation at 2,500 g for 5 min. The right-side-out (RSO) membrane vesicles of JM1100 E. coli cells were prepared as described previouslyl^16,39,40. Transport assay was initiated by the addition of ^14C-radiolabeled glucose (Moravek Biochemicals) to 50 μL RSO vesicles in 100 mM KPi buffer pH 7.5, at O.D.600 nm of 2.0. After one minute, the transport was stopped and the radioactivity was measured as described below. When inhibitors were used, they were incubated with RSO vesicles 1 minute before transport initiation.
Given the partial conservation of the MSNBA binding site in other GLUTs and GlcPSe, we checked whether MSNBA inhibits GLUT1-4 or GlcPSe. Glucose transport of GLUT1, GLUT2, GLUT3 and GLUT4 and fructose transport of GLUT2 were assayed by the entrance counter-flow method in proteoliposomes constructed with the respective recombinant human GLUT produced in insect cells. Glucose transport of GlcPSe was measured in right-side-out (RSO) vesicles of JM1100 E. coli cells (that lack endogenous glucose transport) expressing GlcPSe.
Take `CS(=O)(=O)c1ccc(Nc2ccc3c(c2)OCO3)c([N+](=O)[O-])c1` [MSNBA, N-[4-(methylsulfonyl)-2-nitrophenyl]-1,3-benzodioxol-5-amine]: the “effect on GlcPSe glucose transport” value was “did not affect; also recorded: did not influence”.

Turning to `C=C1[C@@H](C)[C@H]2[C@H](Cc3ccccc3)NC(=O)[C@]23OC(=O)/C=C/[C@H](O)CCC[C@@H](C)C/C=C/[C@H]3[C@@H]1O` [cytochalasin B, reference compound], the “effect on GlcPSe glucose transport” value is reported as “inhibited”.

As to `O=C(CCc1ccc(O)cc1)c1c(O)cc(O)cc1O` [phloretin, reference compound], the “effect on GlcPSe glucose transport” value is “inhibited”.
